For the experiment, the target named is T1, human RXFP1 (Homo sapiens, UniProt Q9HBX9).
T1 construct: expressed in transfected cells
T1 sequence (Q9HBX9 1-757): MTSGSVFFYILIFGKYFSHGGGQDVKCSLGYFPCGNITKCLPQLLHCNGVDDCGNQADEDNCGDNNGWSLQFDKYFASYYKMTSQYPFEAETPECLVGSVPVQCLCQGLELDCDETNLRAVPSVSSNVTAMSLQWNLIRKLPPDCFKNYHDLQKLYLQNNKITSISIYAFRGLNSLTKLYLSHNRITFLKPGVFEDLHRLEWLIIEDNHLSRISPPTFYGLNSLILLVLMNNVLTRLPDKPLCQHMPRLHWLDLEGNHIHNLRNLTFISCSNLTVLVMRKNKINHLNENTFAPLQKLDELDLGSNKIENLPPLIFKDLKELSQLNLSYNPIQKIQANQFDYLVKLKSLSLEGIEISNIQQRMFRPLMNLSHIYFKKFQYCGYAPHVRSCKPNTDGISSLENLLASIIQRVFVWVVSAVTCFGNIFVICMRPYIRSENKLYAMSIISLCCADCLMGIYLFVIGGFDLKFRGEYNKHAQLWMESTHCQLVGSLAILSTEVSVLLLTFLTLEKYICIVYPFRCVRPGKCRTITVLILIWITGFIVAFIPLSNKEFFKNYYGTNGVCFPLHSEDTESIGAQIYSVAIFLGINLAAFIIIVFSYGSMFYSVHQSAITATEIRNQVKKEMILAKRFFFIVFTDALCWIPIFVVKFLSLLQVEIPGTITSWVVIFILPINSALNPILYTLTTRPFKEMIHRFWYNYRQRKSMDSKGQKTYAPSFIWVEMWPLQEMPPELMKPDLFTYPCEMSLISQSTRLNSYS
Description: human RXFP1 (hRXFP1) HEK293 cAMP assay (HTRF). Type of experiment: cell-based. Particulars: HEK293 cells stably expressing human RXFP1, 30 min at room temperature. The gist of the method:
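Intracellular cAMP was quantified by HTRF after a 30 min room-temperature exposure of hRXFP1-HEK293 cells (1500/well) to compound at 0.010 nM–50 µM final, 2% DMSO. Buffer was HBSS with 20 mM HEPES, 0.05% BSA and 0.5 mM IBMX; values came from a 4-parameter logistic fit.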
Background: Cyclic AMP is a second messenger, typically raised through Gs and lowered through Gi signalling.

pEC50: −log10 of the molar value.

The values below come from patent US20250011288A1 (BRISTOL-MYERS SQUIBB COMPANY, priority 2021, published 2025).

For orientation: pEC50 means the negative decadic logarithm of the EC50, by convention in mol/L. Read a low pEC50 as a large EC50.

In turn, `CC1Cc2cc(C3=NOC4CC(CO)CC34)cc(C(=O)N[C@@H]3C4CCC(/C4=C/C4CC4)[C@@H]3C(=O)N[C@H](C)C3(C)CC3)c2O1` (stereo partly drawn) [Example 152] showed a pEC50 of 8.05.

For the compound `CC1Cc2cc(C3=NOC4CC(CO)CC34)cc(C(=O)N[C@H]3[C@@H](C(=O)N[C@H](C)C4(C)CC4)[C@H]4CC[C@@H]3/C4=C\C3CC3)c2O1` (stereo partly drawn) [Example 153, N-[(1R,2R,3S,4R, 7Z)-7-(cyclopropyl-methylidene)-3-{[(1R)-1-(1-methylcyclopropyl)ethyl]carbamoyl}bicyclo[2.2.1]heptan-2-yl]-5-[5-(hydroxymethyl) 3aH,4H,5H,6H, 6aH-cyclopenta[d][1,2]oxazol-3-yl]-2-methyl-2,3-dihydro-1-benzofuran-7-carboxamide], the pEC50 is 8.34.

`CC1Cc2cc(C3=NOC4CC(O)CC34)cc(C(=O)N[C@H]3[C@@H](C(=O)Nc4ccc(F)c(C(F)(F)F)c4)[C@H]4CC[C@@H]3/C4=C\C3CC3)c2O1` (stereo partly drawn) [Example 154, N-[(1R,2R,3S,4R, 7Z)-7-(cyclopropyl-methylidene)-3-{[4-fluoro-3-(trifluoromethyl)phenyl]carbamoyl}bicyclo[2.2.1]heptan-2-yl]-5-{5-hydroxy-3aH,4H,5H,6H, 6aH-cyclopenta[d][1, 2]oxazol-3-yl}-2-methyl-2,3-dihydro-1-benzofuran-7-carboxamide] gave a negative-log EC50 (pEC50) of 8.39. Then `CC1Cc2cc(C3=NOC4CC(O)CC34)cc(C(=O)N[C@@H]3C4CCC(/C4=C/C4CC4)[C@@H]3C(=O)Nc3ccc(F)c(C(F)(F)F)c3)c2O1` (stereo partly drawn) [Example 155, N-[(1R,2R,3S,4R, 7Z)-7-(cyclopropyl-methylidene)-3-{[4-fluoro-3-(trifluoromethyl)phenyl]carbamoyl}bicyclo[2.2.1]heptan-2-yl]-5-{5-hydroxy-3aH,4H,5H,6H, 6H-cyclopenta[d][1,2]oxazol-3-yl}-2-methyl-2,3-dihydro-1-benzofuran-7-carboxamide], with 8.17; and `CC1Cc2cc(C3=NOC4CC(O)(C(F)(F)F)CC34)cc(C(=O)N[C@H]3[C@@H](C(=O)Nc4ccc(F)c(C(F)(F)F)c4)[C@H]4CC[C@@H]3/C4=C\C3CCCC3)c2O1` (stereo partly drawn) [Example 156, N-[(1R,2R,3S,4R, 7Z)-7-(cyclopentyl-methylidene)-3-{[4-fluoro-3-(trifluoromethyl)phenyl]carbamoyl}bicyclo[2.2.1]heptan-2-yl]-5-[5-hydroxy-5-(trifluoromethyl) 3aH,4H,5H,6H, 6aH-cyclopenta[d][1,2]oxazol-3-yl]-2-methyl-2,3-dihydro-1-benzofuran-7-carboxamide], with 8.89. `COc1ncc(C2=NOC(C)(CO)C2)cc1C(=O)N[C@H]1[C@@H](C(=O)Nc2ccc(F)c(C(F)(F)F)c2)[C@H]2CC[C@@H]1/C2=C\C1CC1` (stereo partly drawn) [Example 157, N-[(1R,2R,3S,4R, 7Z)-7-(cyclopropyl-methylidene)-3-{[4-fluoro-3-(trifluoromethyl)phenyl]carbamoyl}bicyclo[2.2.1]heptan-2-yl]-5-[5-(hydroxymethyl)-5-methyl-4,5-dihydro-1,2-oxazol-3-yl]-2-methoxypyridine-3-carboxamide] showed a pEC50 of 8.25. On to `COc1cc(C2=NOC3CC(COC(=O)Nc4ccccc4)CC23)cc(C(=O)N[C@@H]2C3CCC(/C3=C/C3CC3)[C@@H]2C(=O)Nc2ccc(F)c(C(F)(F)F)c2)n1` (stereo partly drawn) [Example 158, [3-(2-{[(2R,3S,7Z)-7-(cyclopropyl-methylidene)-3-{[4-fluoro-3-(trifluoromethyl)phenyl]carbamoyl}bicyclo[2.2.1]heptan-2-yl]carbamoyl}-6-methoxypyridin-4-yl)-3aH,4H,5H,6H, 6aH-cyclopenta[d][1,2]oxazol-5-yl]methyl N-phenylcarbamate], for which the pEC50 was 8.11. In turn, `COc1ncc(C2=NOC3CC(C(C)O)CC23)cc1C(=O)N[C@H]1[C@@H](C(=O)N[C@H](C)C2(C)CC2)[C@H]2CC[C@@H]1/C2=C\C1CC1` (stereo partly drawn) [Example 159, N-[(1R,2R,3S,4R, 7Z)-7-(cyclopropyl-methylidene)-3-{[(1R)-1-(1-methylcyclopropyl)ethyl]carbamoyl}bicyclo[2.2.1]heptan-2-yl]-5-[5-(1-hydroxyethyl)-3aH,4H,5H,6H, 6aH-cyclopenta[d][1,2]oxazol-3-yl]-2-methoxypyridine-3-carboxamide] gave a pEC50 of 8.21. Compound `COc1ncc(C2=NOC3CC(C(OC(=O)Nc4ccccc4)C4CC4)CC23)cc1C(=O)N[C@@H]1C2CCC(/C2=C/C2CC(F)(F)C2)[C@@H]1C(=O)Nc1ccc(F)c(C(F)(F)F)c1` (stereo partly drawn) [Example 160, cyclopropyl[3-(5-{[(2R,3S,7Z)-7-1(3,3-difluorocyclobutyl)methylidene]-3-{[4-fluoro-3-(trifluoromethyl)phenyl]carbamoyl}bicyclo[2.2.1]heptan-2-yl]carbamoyl}-6-methoxypyridin-3-yl)-3aH,4H,5H,6H, 6aH-cyclopenta[d][1,2] oxazol-5-yl]methyl N-phenylcarbamate] had a pEC50 of 8.08. With `COc1ncc(C2=NOC3CC(C(OC(=O)NC4CCC4)C4CC4)CC23)cc1C(=O)N[C@@H]1C2CCC(/C2=C/C2CC(F)(F)C2)[C@@H]1C(=O)Nc1ccc(F)c(C(F)(F)F)c1` (stereo partly drawn) [Example 161, cyclopropyl[3-(5-{[(2R,3S,7Z)-7-[(3,3-difluorocyclobutyl)methylidene]-3-{[4-fluoro-3-(trifluoromethyl)phenyl]carbamoyl}bicyclo[2.2.1]heptan-2-yl]carbamoyl}-6-methoxypyridin-3-yl)-3aH,4H,5H,6H, 6aH-cyclopenta[d][1,2]oxazol-5-yl]methyl N-cyclobutylcar-bamate], the pEC50 was 8.05. `COc1ncc(C2=NOC3CC(C(OC(=O)Nc4ccccc4)C4CC4)CC23)cc1C(=O)N[C@@H]1C2CCC(/C2=C/C2CCCC2)[C@@H]1C(=O)Nc1ccc(F)c(C(F)(F)F)c1` (stereo partly drawn) [Example 162, [3-(5-{[(2R,3S,7Z)-7-(cyclopentyl-methylidene)-3-{[4-fluoro-3-(trifluoromethyl)phenyl]carbamoyl}bicyclo[2.2.1]heptan-2-yl]carbamoyl}-6-methoxypyridin-3-yl)-3aH,4H,5H,6H, 6aH-cyclopenta[d][1,2]oxazol-5-yl](cyclopropyl) methyl N-phenylcarbamate]: the pEC50 was 8.34. For `COc1ncc(-c2cc([C@H](O)C(F)(F)F)ccc2F)cc1C(=O)N[C@H]1[C@@H](C(=O)Nc2ccc(F)c(C(F)(F)F)c2)[C@H]2CC[C@@H]1/C2=C\C1CCCC1` [Example 163, N-[(1R,2R,3S,4R, 7Z)-7-(cyclopentyl-methylidene)-3-{[4-fluoro-3-(trifluoromethyl)phenyl]carbamoyl}bicyclo[2.2.1]heptan-2-yl]-5-{2-fluoro-5-[(1S)-2,2,2-trifluoro-1-hydroxyethyl]phenyl}-2-methoxypyridine-3-carboxamide] the value was 9.00; for `COc1ncc(-c2cc([C@H](OC(=O)NC3CC3)C(F)(F)F)ccc2F)cc1C(=O)N[C@@H]1C2CCC(/C2=C/C2CCCC2)[C@@H]1C(=O)Nc1ccc(F)c(C(F)(F)F)c1` (stereo partly drawn) [Example 164, (1S)-1-[3-(5-{[(1R,2R,3S,4R, 7Z)-7-(cyclopentyl-methylidene)-3-{[4-fluoro-3-(trifluoromethyl)phenyl]carbamoyl}bicyclo[2.2.1]heptan-2-yl]carbamoyl}-6-methoxypyridin-3-yl)-4-fluorophenyl]-2,2,2-trifluoroethyl N-cyclopropylcar-bamate], 8.85; for `COc1ncc(-c2cc([C@H](OC(=O)NC3CC3)C(F)(F)F)ccc2F)cc1C(=O)N[C@H]1[C@@H](C(=O)Nc2ccc(F)c(C(F)(F)F)c2)[C@H]2CC[C@@H]1/C2=C\CCC(F)(F)F` [Example 165, (1S)-2,2,2-trifluoro-1-[4-fluoro-3-(5-{[(1R,2R,3S,4R, 7Z)-3-{[4-fluoro-3-(trifluoromethyl)phenyl]carbamoyl}-7-(4,4,4-trifluorobutylidene)bicyclo[2.2.1]heptan-2-yl]carbamoyl}-6-methoxypyridin-3-yl)phenyl]ethyl N-cyclopropyl-carbamate], 8.92. Compound `COc1ncc(-c2cc([C@H](OC(=O)NC3CC3)C(F)(F)F)ccc2F)cc1C(=O)N[C@H]1[C@@H](C(=O)Nc2ccc(F)c(C(F)(F)F)c2)[C@H]2CC[C@@H]1/C2=C\C(C)C` [Example 166, (1S)-2,2,2-trifluoro-1-[4-fluoro-3-(5-{[(1R,2R,3S,4R, 7Z)-3-{[4-fluoro-3-(trifluoromethyl)phenyl]carbamoyl}-7-(2-methylpropylidene)bicyclo[2.2.1]heptan-2-yl]carbamoyl}-6-methoxypyridin-3-yl)phenyl]ethyl N-cyclopropyl-carbamate] showed a pEC50 of 8.60.
